Experimental data from PubChem BioAssay (NCI).
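How tested: cells in 96-well plates exposed to compound for 48 hours at five concentrations. TGI is the concentration that stops growth completely.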

Key:
Experiment in all cases: NCI tumour cell line growth inhibition, 48 h
RPMI-8226 leukemia = tested on: RPMI-8226 leukemia
KM12 colon = tested on: KM12 colon
SN12K1 renal = tested on: SN12K1 renal
SN12C renal = tested on: SN12C renal
P388 leukemia = tested on: P388 leukemia
SW-620 colon = tested on: SW-620 colon
HCT-116 colon = tested on: HCT-116 colon
SK-OV-3 ovarian = tested on: SK-OV-3 ovarian
MOLT-4 leukemia = tested on: MOLT-4 leukemia
NCI-H522 lung = tested on: NCI-H522 lung
KM20L2 colon = tested on: KM20L2 colon
U251 CNS = tested on: U251 CNS
SK-MEL-28 melanoma = tested on: SK-MEL-28 melanoma
SNB-75 CNS = tested on: SNB-75 CNS
HCT-15 colon = tested on: HCT-15 colon
SK-MEL-2 melanoma = tested on: SK-MEL-2 melanoma
CCRF-CEM leukemia = tested on: CCRF-CEM leukemia
SF-295 CNS = tested on: SF-295 CNS
UO-31 renal = tested on: UO-31 renal
UACC-62 melanoma = tested on: UACC-62 melanoma
HOP-18 NSCLC = tested on: HOP-18 NSCLC
HCC-2998 colon = tested on: HCC-2998 colon
MALME-3M melanoma = tested on: MALME-3M melanoma
SF-268 CNS = tested on: SF-268 CNS
OVCAR-4 ovarian = tested on: OVCAR-4 ovarian
OVCAR-8 ovarian = tested on: OVCAR-8 ovarian
A498 renal = tested on: A498 renal
UACC-257 melanoma = tested on: UACC-257 melanoma
NCI/ADR-RES ovarian = tested on: NCI/ADR-RES ovarian
NCI-H460 lung = tested on: NCI-H460 lung
HOP-92 NSCLC = tested on: HOP-92 NSCLC
SNB-19 CNS = tested on: SNB-19 CNS
SNB-78 CNS = tested on: SNB-78 CNS
XF 498 CNS = tested on: XF 498 CNS
MCF7 breast = tested on: MCF7 breast
DMS 114 small cell lung = tested on: DMS 114 small cell lung
DLD-1 colon = tested on: DLD-1 colon
HL-60(TB) leukemia = tested on: HL-60(TB) leukemia
A549 NSCLC = tested on: A549 NSCLC
SF-539 CNS = tested on: SF-539 CNS
LOX IMVI melanoma = tested on: LOX IMVI melanoma
M19-MEL melanoma = tested on: M19-MEL melanoma
DMS 273 small cell lung = tested on: DMS 273 small cell lung
IGROV1 ovarian = tested on: IGROV1 ovarian
COLO 205 colon = tested on: COLO 205 colon
OVCAR-3 ovarian = tested on: OVCAR-3 ovarian
NCI-H23 lung = tested on: NCI-H23 lung
OVCAR-5 ovarian = tested on: OVCAR-5 ovarian
EKVX NSCLC = tested on: EKVX NSCLC
K-562 leukemia = tested on: K-562 leukemia
SK-MEL-5 melanoma = tested on: SK-MEL-5 melanoma
NCI-H226 lung = tested on: NCI-H226 lung
HOP-62 NSCLC = tested on: HOP-62 NSCLC
RXF 393 renal = tested on: RXF 393 renal
HT29 colon = tested on: HT29 colon
CAKI-1 renal = tested on: CAKI-1 renal
P388/ADR leukemia = tested on: P388/ADR leukemia

With COc1cc([C@@H]2c3cc4c(c(O[C@@H]5O[C@H]6CO[C@@H](C)O[C@H]6[C@H](O)[C@@H]5O)c3C[C@H]3COC(=O)[C@@H]32)OCO4)cc(OC)c1O the TGI (RPMI-8226 leukemia) was > 100 µM, the TGI (KM12 colon) was > 79.6 µM and the TGI (SN12K1 renal) was > 45.1 µM. The TGI (SN12C renal) was > 100 µM, the TGI (P388 leukemia) was 4.82 µM and the TGI (SW-620 colon) was > 100 µM. For the same compound, the TGI (HCT-116 colon) was > 44.6 µM, the TGI (SK-OV-3 ovarian) was > 92.9 µM and the TGI (MOLT-4 leukemia) was > 100 µM. The TGI (NCI-H522 lung) was 6.42 µM, the TGI (KM20L2 colon) was > 100 µM and the TGI (U251 CNS) was > 46.8 µM. The TGI (SK-MEL-28 melanoma) was > 100 µM, the TGI (SNB-75 CNS) was > 100 µM and the TGI (HCT-15 colon) was > 100 µM. For the same compound, the TGI (SK-MEL-2 melanoma) was > 100 µM, the TGI (CCRF-CEM leukemia) was > 100 µM and the TGI (SF-295 CNS) was 22.5 µM. For the same compound, the TGI (UO-31 renal) was > 100 µM, the TGI (UACC-62 melanoma) was > 100 µM and the TGI (HOP-18 NSCLC) was > 100 µM. For the same compound, the TGI (HCC-2998 colon) was > 81.1 µM, the TGI (MALME-3M melanoma) was > 100 µM and the TGI (SF-268 CNS) was > 79.5 µM. The TGI (OVCAR-4 ovarian) was > 53.3 µM, the TGI (OVCAR-8 ovarian) was > 100 µM and the TGI (A498 renal) was > 100 µM. For the same compound, the TGI (UACC-257 melanoma) was > 100 µM, the TGI (NCI/ADR-RES ovarian) was 37.1 µM and the TGI (NCI-H460 lung) was > 100 µM. For the same compound, the TGI (HOP-92 NSCLC) was > 100 µM, the TGI (SNB-19 CNS) was > 100 µM and the TGI (SNB-78 CNS) was > 100 µM. The TGI (XF 498 CNS) was > 100 µM, the TGI (MCF7 breast) was > 100 µM and the TGI (DMS 114 small cell lung) was > 31.1 µM. The TGI (DLD-1 colon) was > 100 µM, the TGI (HL-60(TB) leukemia) was > 38.9 µM and the TGI (A549 NSCLC) was > 100 µM. The TGI (SF-539 CNS) was 7.79 µM, the TGI (LOX IMVI melanoma) was > 100 µM and the TGI (M19-MEL melanoma) was > 100 µM. The TGI (DMS 273 small cell lung) was > 100 µM, the TGI (IGROV1 ovarian) was > 100 µM and the TGI (COLO 205 colon) was > 100 µM. The TGI (OVCAR-3 ovarian) was 20.6 µM, the TGI (NCI-H23 lung) was > 100 µM and the TGI (OVCAR-5 ovarian) was > 100 µM. For the same compound, the TGI (EKVX NSCLC) was > 100 µM, the TGI (K-562 leukemia) was > 100 µM and the TGI (SK-MEL-5 melanoma) was > 100 µM. The TGI (NCI-H226 lung) was 20.8 µM, the TGI (HOP-62 NSCLC) was > 100 µM and the TGI (RXF 393 renal) was > 100 µM. The TGI (HT29 colon) was > 100 µM.
CCCNC1=C(C)C(=O)C2=C(C1=O)[C@H](COC(N)=O)[C@]1(OC)[C@@H]3N[C@@H]3CN21 gave a TGI (RPMI-8226 leukemia) of 73.9 µM, a TGI (KM12 colon) of 56.1 µM and a TGI (SN12K1 renal) of 44.1 µM. The TGI (SN12C renal) was 69.2 µM, the TGI (P388 leukemia) was 39.2 µM and the TGI (SW-620 colon) was 113 µM. For the same compound, the TGI (HCT-116 colon) was 32.2 µM, the TGI (SK-OV-3 ovarian) was 170 µM and the TGI (MOLT-4 leukemia) was 31.3 µM. The TGI (NCI-H522 lung) was 12.5 µM, the TGI (KM20L2 colon) was 121 µM and the TGI (U251 CNS) was 40.6 µM. The TGI (SK-MEL-28 melanoma) was 87.8 µM, the TGI (SNB-75 CNS) was 24.6 µM and the TGI (HCT-15 colon) was 72 µM. For the same compound, the TGI (SK-MEL-2 melanoma) was 34.3 µM, the TGI (CCRF-CEM leukemia) was 185 µM and the TGI (SF-295 CNS) was 39.7 µM. The TGI (UO-31 renal) was 67.3 µM, the TGI (UACC-62 melanoma) was 5.74 µM and the TGI (HOP-18 NSCLC) was 53.4 µM. The TGI (CAKI-1 renal) was 84.5 µM, the TGI (HCC-2998 colon) was 20.6 µM and the TGI (MALME-3M melanoma) was 26.5 µM. For the same compound, the TGI (SF-268 CNS) was 77.9 µM, the TGI (OVCAR-4 ovarian) was 19.3 µM and the TGI (OVCAR-8 ovarian) was 53 µM. For the same compound, the TGI (A498 renal) was 13.6 µM, the TGI (UACC-257 melanoma) was 38.9 µM and the TGI (NCI/ADR-RES ovarian) was 300 µM. It also gave a TGI (NCI-H460 lung) of 4.17 µM, a TGI (P388/ADR leukemia) of 54.7 µM and a TGI (HOP-92 NSCLC) of 43.9 µM. It also gave a TGI (SNB-19 CNS) of 45.4 µM, a TGI (SNB-78 CNS) of 158 µM and a TGI (XF 498 CNS) of 15.3 µM. It also gave a TGI (MCF7 breast) of 4.15 µM, a TGI (DMS 114 small cell lung) of 59 µM and a TGI (DLD-1 colon) of 79.9 µM. For the same compound, the TGI (HL-60(TB) leukemia) was 19.4 µM, the TGI (A549 NSCLC) was 8.69 µM and the TGI (SF-539 CNS) was 45.3 µM. The TGI (LOX IMVI melanoma) was 19.1 µM, the TGI (M19-MEL melanoma) was 27.3 µM and the TGI (DMS 273 small cell lung) was 15.8 µM. The TGI (IGROV1 ovarian) was 33.3 µM, the TGI (COLO 205 colon) was 45 µM and the TGI (OVCAR-3 ovarian) was 55.3 µM. For the same compound, the TGI (NCI-H23 lung) was 12.5 µM, the TGI (OVCAR-5 ovarian) was 92.4 µM and the TGI (EKVX NSCLC) was 27.4 µM. For the same compound, the TGI (K-562 leukemia) was 174 µM, the TGI (SK-MEL-5 melanoma) was 2.65 µM and the TGI (NCI-H226 lung) was 34 µM. For the same compound, the TGI (HOP-62 NSCLC) was 4.42 µM, the TGI (RXF 393 renal) was 46.4 µM and the TGI (HT29 colon) was 94.3 µM.
